How the values were obtained:
Assay type in all cases: in vivo, Cryptotis parva
[1] = tested on: GR73632-induced emesis and scratching in the Least Shrew; experiment: Antagonist interaction study against GR73632 (5 mg/kg, i.p.)-induced emesis and scratching
Text: The present protocols were based upon preliminary studies as well as published findings in the Least Shrew. Darmani, 2001a; Darmani et al., 69 Pharmacol. Biochem. Behay. 239-49 (2001b). On the test day, the shrews were allowed to acclimate to the test laboratory for at least one hour prior to experimentation. To habituate the animals to the test environment, each shrew was randomly selected and transferred to a 20 cm×18 cm×21 cm clean clear plastic cage and offered four mealworms (Tenebrio sp.) 30 min prior to experimentation.
The latter doses of SP and GR73632 were chosen for subsequent antagonist interaction studies to pharmacologically characterize the role of NK1 receptors in the mediation of induced emesis by the use of: (1) two selective neurokinin NK1 receptor antagonists (CP99,994 and L733060) (Watson et al., 115 Br. J. Phramacol. 84-94 (1995); Guiard et al., 89 J. Neurochem. 54-63 (2004)); (2) an NK2 receptor antagonist (GR159897) (Beresford et al., 272 Eur. J. Pharmacol. 241-48 (1995)); and (3) an NK3 receptor antagonist (SB218795) (Salthun-Lassalle et al., 1995).
(§1) For the above drug interaction studies, different doses (i.p.) of either CP99,994 (0, 5, 10, and 20 mg/kg, n=10-14 shrews per group); L733060 (0, 5, 10, and 20 mg/kg, n=10-14 shrews per group), GR159897 (0 mg/kg and 20 mg/kg, n=8 per group) or SB218795 (0 or 20 mg/kg, n=7-8 per group) were administered to different groups of shrews 30 min prior to injection of an emetic dose (5 mg/kg, i.p.) of the NK1-receptor agonist GR73632. Emesis and scratchings were recorded for 30 min immediately following GR73632 administration as described above. The antiemetic effect of CP99,994 (0, 5, and 10 mg/kg, n=9-10 animals per group) was also investigated in a similar manner against SP (50 mg/kg, i.p.)-induced emesis.
(§2) The data on the frequency of emesis and scratchings were analyzed by the Kruskal-Wallis (KW) nonparametric one-way analysis of variance (ANOVA) and post hoc analysis by Dunn's multiple comparisons test or Mann-Whitney test. A P value of <0.05 was necessary to attain statistical significance. The incidence of emesis (number of shrews vomiting) was analyzed by the Fisher's exact test to determine whether there were differences between groups. When appropriate, pairwise comparisons were also made by this method. Two-way analysis of variance using the Kruskal-Wallis or Fisher's exact tests were initially utilized to respectively analyze the dose-response results of GR73632 on emesis and scratching behaviors, and percentage of shrews vomiting in saporin- and corresponding saline-pretreated control shrews. […] For some emesis data, the two-tailed Mann-Whitney test was used. The SP tissue concentration data were analyzed by a one-way ANOVA followed by Dunnett's t test as post hoc analysis. Fos-IR was quantified by counting immunopositive nuclei within each hemisection containing the region of interest (ROI). The number of nuclei was averaged across sections with the ROI for each animal, and the group mean and standard error obtained.

[2] = tested on: SP-induced emesis in the Least Shrew; experiment: Antagonist interaction study against SP (50 mg/kg, i.p.)-induced emesis; details: antagonist 10 mg/kg i.p., 30 min before SP 50 mg/kg i.p.
Text: (§3) The present protocols were based upon preliminary studies as well as published findings in the Least Shrew. Darmani, 2001a; Darmani et al., 69 Pharmacol. Biochem. Behay. 239-49 (2001b). On the test day, the shrews were allowed to acclimate to the test laboratory for at least one hour prior to experimentation. To habituate the animals to the test environment, each shrew was randomly selected and transferred to a 20 cm×18 cm×21 cm clean clear plastic cage and offered four mealworms (Tenebrio sp.) 30 min prior to experimentation. […]
as §1, with “The antiemetic effect of CP99,994 (0, 5, and 10 mg/kg, n=9-10 animals per group) was also investigated in a similar manner against SP (50 mg/kg, i.p.)-induced emesis.” left out
The data on the frequency of emesis and scratchings were analyzed by the Kruskal-Wallis (KW) nonparametric one-way analysis of variance (ANOVA) and post hoc analysis by Dunn's multiple comparisons test or Mann-Whitney test. […]

[3] = tested on: LTC4-induced emesis in the Least Shrew; experiment: CysLT1 antagonists against leukotriene LTC4-induced emesis; details: dose-dependent
Procedure: Emetic parameters were recorded for 30min post emetic injection.

NK1 receptor = experiment: Histological analysis of NK1 receptor immunotoxic lesions with SSP-saporin
Procedure: (§4) Immunohistochemistry was performed by blocking free-floating sections with 10% normal horse serum (NHS) and 3% hydrogen peroxide in PB with 0.3% Triton X-100 (TX) for 30 min After rinsing three times in PB, tissue was put in either: (1) rat anti-Substance P monoclonal antibody (Chemicon, 1:400); (2) sheep anti-Fos polyclonal (Chemicon, 1:600); or (3) rabbit anti-NK1 receptor polyclonal (Santa Cruz, 1:500), with 5% NHS and 0.3% TX, and incubated overnight at room temperature with gentle shaking. After rinsing three times in PB, the tissue was placed in biotinylated donkey anti-rat, anti-sheep, or anti-rabbit (respectively) IgG secondary antibody (Jackson Immuno, dilution 1:600). The secondary antibody was diluted in the same diluent described for the primary antibody, and the tissue incubated at room temperature with shaking for 75 min. After rinsing three times in PB, tissue was incubated for 60 min in horse radish peroxidase-conjugated avidin-biotin complex (Vector Labs Vectastain kit, diluted 1:2) in PB. Tissue was then rinsed twice in PB, then once in imidazole-acetate buffer (0.1 M, pH7.4), then reacted for 6 min in 0.0006% hydrogen peroxide with 2% nickel ammonium sulfate-enhanced diaminobenzidine (DAB, 0.05% in 0.1 M imidazole-acetate buffer).
To better localize the induction of emesis by GR73632, dose-response curves were generated for shrews pretreated either with the NK1 receptor immunotoxin SSP-saporin or saline and challenged four days later with varying doses of GR73632 (0, 1, 2.5, or 5 mg/kg, i.p., n=8-10 per group). Briefly, thirty shrews were injected i.p. with 1.2 mg/kg SSP-saporin in sterile saline, and thirty-five shrews were injected with sterile saline alone. In addition, two more shrews were injected with 1.2 mg/kg unconjugated saporin (saporin; ATS) and two more with 1.2 mg/kg of saporin conjugated to a nonspecific peptide sequence (Blank-saporin; ATS). […] Each shrew was monitored for 30 min post-injection and vomiting and scratching behaviors quantified. […]

[4] = tested on: Least Shrew, NK1 receptor-intact or NK1 receptor-ablated; experiment: GR73632 emesis and scratching after SSP-saporin ablation of peripheral NK1 receptors
Procedure: To better localize the induction of emesis by GR73632, dose-response curves were generated for shrews pretreated either with the NK1 receptor immunotoxin SSP-saporin or saline and challenged four days later with varying doses of GR73632 (0, 1, 2.5, or 5 mg/kg, i.p., n=8-10 per group). Briefly, thirty shrews were injected i.p. with 1.2 mg/kg SSP-saporin in sterile saline, and thirty-five shrews were injected with sterile saline alone. In addition, two more shrews were injected with 1.2 mg/kg unconjugated saporin (saporin; ATS) and two more with 1.2 mg/kg of saporin conjugated to a nonspecific peptide sequence (Blank-saporin; ATS). Shrews were returned to the animal facility for three days and supplied with unrestricted food and water. Saporin-injected and Blank-saporin-injected shrews were perfused four days post-injection, and brain and gut harvested as described for immunohistochemical staining. The SSP-saporin and saline-injected shrews were divided into different groups on day 4 post-injection, and each group was injected i.p. with varying doses varying doses of 0, 1, 2.5, or 5 mg/kg GR73632 dissolved in saline. Each shrew was monitored for 30 min post-injection and vomiting and scratching behaviors quantified. Three shrews from each group were then perfused 90 min to 120 min post-injection as described previously for Fos immunohistochemistry, and brain and gut harvested. Immunohisto-chemistry (IHC) was performed for SP, NK1 receptor, and Fos as described, to qualitatively examine the extent of immunotoxic lesion in the brain and/or enteric nervous system. IHC for SP and NK1 receptor was done on the saporin- and Blank-saporin-injected shrews to verify the specificity of SSP-saporin and lack of toxicity of unconjugated saporin.
as §2

Fos = experiment: Fos-IR in brain and enteric nervous system after GR73632; details: GR73632 2.5 mg/kg i.p.
Procedure: Shrews were given four mealworms each and GR73632 (2.5 mg/kg, i.p., or vehicle (saline)) injection. For emesis-related Fos visualization, a shrew was transcardially perfused 60 min to 75 min after vomiting occurred, typically 20 min to 35 min post-injection.
After the appropriate time period as described above, shrews were anesthetized with a lethal dose of pentobarbital ([…]) and perfused transcardially via 25 ga blunted needle connected to a peristaltic pump. The shrew was perfused first with ice cold heparinized saline (0.9% NaC1, 60 sec-90 sec), followed by ice cold 4% paraformaldehyde/5% picric acid in pH7.4, 0.1 M (10 min). Brains were removed and stored in 30% sucrose in 0.1 M phosphate buffer (PB) overnight, then embedded in blocks of 12% gelatin in 30% sucrose/PB. The blocks were postfixed for 3 hr in 2% paraformaldehyde/PB, then rinsed and immersed in 30% sucrose/PB until they sank (usually 1 hr to 2 hr). The brain block was cut on a freezing benchtop microtome (Leica) at 30 μm into five series, and stored in PB with 0.03% sodium azide.
as §4
After reacting, the tissue was rinsed thoroughly in PB and mounted onto gel-subbed slides out of PB. After air-drying, slides were dehydrated through a series of ascending ethanols (50%-75%-90%-100%), then cleared in xylene (Fisher). Cleared slides were coverslipped with DEPEX (Electron Microscopy Sciences).
Photomicrographs of regions of interest were taken at 1600×1200 pixel digital resolution with a SPOT digital camera (Diagnostic Instruments) attached to a Pentium 4 PC running version 4.0 of the SPOT software. The camera was mounted to a Nikon Eclipse E600 microscope. A calibrated scale bar was added and the photos exported to Adobe Photoshop 7, where the Photoshop brush tool was used to mark Fos+nuclei as they were counted. Relevant structures were identified using an atlas produced in lab (Ray & Darmani, 2007). Cell counts for each structure were averaged on a per-section basis and collated in a spreadsheet for statistical analysis.
The data on the frequency of emesis and scratchings were analyzed by the Kruskal-Wallis (KW) nonparametric one-way analysis of variance (ANOVA) and post hoc analysis by Dunn's multiple comparisons test or Mann-Whitney test. A P value of <0.05 was necessary to attain statistical significance. The incidence of emesis (number of shrews vomiting) was analyzed by the Fisher's exact test to determine whether there were differences between groups. When appropriate, pairwise comparisons were also made by this method. […]

Least Shrew = experiment: Dose response emesis and scratching studies with tachykinin receptor agonists; details: for increase in emesis frequency vs vehicle control: 30 min observation
Text: as §3, §2

COc1ccccc1CN[C@H]1CCCN[C@H]1c1ccccc1 (relative stereo) [CP99,994, (2S, 3S)-Cis-3 (2-methoxybenzylamino-2-phenylpiperidine)]
reduction in frequency of GR73632-induced emesis ([1]; antagonist 5 mg/kg i.p.): 61% | reduction in percentage of shrews vomiting in response to GR73632 ([1]; antagonist 5 mg/kg i.p.): 2.9% | reduction in frequency of GR73632-induced emesis ([1]; antagonist 10 mg/kg i.p.): 87% | reduction in percentage of shrews vomiting in response to GR73632 ([1]; antagonist 10 mg/kg i.p.): 60% | reduction in frequency of GR73632-induced emesis ([1]; antagonist 20 mg/kg i.p.): 97% | reduction in percentage of shrews vomiting in response to GR73632 ([1]; antagonist 20 mg/kg i.p.): 73% | reduction in the frequency of scratching ([1]; antagonist 5, 10, and 20 mg/kg, failed to attain significance): up to 49% | onset of first emesis induced by GR73632 ([1]; at highest tested effective antiemetic doses): only delayed the onset of first emesis | attenuation of the frequency of SP-induced emesis [2]: 84% | shrews protected from SP-induced emesis [2]: 70%

O=C(Nc1cccc2c(=O)cc(-c3nnn[nH]3)oc12)c1ccc(OCCCCc2ccccc2)cc1 [Pranlucast, 4-Oxo-8-[(4-phenylbutoxy)benzoylamino]-2-(tetrazol-5-yl)-4H-1-benzopyran]
prevention of LTC4-induced emesis [3]: prevent LTC4-induced emesis completely

COc1cc(C(=O)NS(=O)(=O)c2ccccc2C)ccc1Cc1cn(C)c2ccc(NC(=O)OC3CCCC3)cc12 [zafirlucast]
prevention of LTC4-induced emesis [3]: prevent LTC4-induced emesis completely

[Sar^9, Met (O2)“]-SP-saporin [SSP-saporin]
NK1 receptor-IR in the gut vs saline-treated controls (NK1 receptor; 1.2 mg/kg i.p., four days): clear loss | blood brain barrier penetration (NK1 receptor; peripherally administered, 1.2 mg/kg i.p.): does not penetrate the blood brain barrier

delta Ava [L-Pro^9, N-MeLeu^10]SP (7-11) [GR73632]
percentage of shrews vomiting ([4]; GR73632 1 mg/kg, NK1 receptor-intact (saline-pretreated) shrews): 44% | number of vomits ([4]; GR73632 1 mg/kg, normal shrews): about two vomits | percentage of shrews vomiting ([4]; GR73632 1 mg/kg, saporin-pretreated NK1 receptor-ablated shrews): 0% | percentage of shrews vomiting ([4]; GR73632 2.5 mg/kg, NK1 receptor-ablated shrews): 28% | percentage of shrews vomiting ([4]; GR73632 2.5 mg/kg, NK1 receptor-intact shrews): 62.5% | bouts of vomiting, ablated vs intact shrews ([4]; GR73632 5 mg/kg, NK1 ablated shrews): significantly less bouts of vomiting | percentage of shrews vomiting ([4]; GR73632 5 mg/kg, NK1 receptor-ablated shrews): 100% | percentage of shrews vomiting ([4]; GR73632 5 mg/kg, NK1 receptor-intact shrews): 100% | number of scratches ([4]; GR73632 1, 2.5, 5 mg/kg, NK1 receptor-ablated shrews): increased in a significant manner at all tested doses | duration of expulsion of food/liquid ([4]; NK1 receptor-ablated shrews): 15 to 30 s | duration of emesis (each vomit expulsion) ([4]; NK1 receptor-intact animals): 2 to 4 s | Fos-IR in gastrointestinal enteric nervous system vs saline (Fos): significant differences | shrews in which vomiting was induced (Fos; N=6): five of six | Fos-IR nuclei per coronal hemisection, AP (Fos; mean ± standard error): 2.4 ± 1.2 | Fos-IR nuclei per coronal hemisection, DMNX (Fos; mean ± standard error): 3.3 ± 1.0 | Fos-IR nuclei per coronal hemisection, NTS (Fos; mean ± standard error): 8.2 ± 1.1 | Fos-IR nuclei per coronal hemisection, PFC (Fos; mean ± standard error): 58.4 ± 14.2 | frequency of scratching behavior vs vehicle (Least Shrew; 2.5 mg/kg i.p.): Significant enhancements | percentage of shrews vomiting (Least Shrew; 2.5 mg/kg i.p.): 87.5% | increase in emesis frequency vs vehicle control (Least Shrew; 2.5 mg/kg i.p.): 438% | frequency of scratching behavior vs vehicle (Least Shrew; 5 mg/kg i.p.): Significant enhancements | percentage of shrews vomiting (Least Shrew; 5 mg/kg i.p.): 100% | increase in emesis frequency vs vehicle control (Least Shrew; 5 mg/kg i.p.): 575% | onset of first emesis after injection (Least Shrew; i.p. agonist injection): 3 to 4 min

saporin
NK1 receptor-IR and SP-IR vs control shrews (NK1 receptor; 1.2 mg/kg, four days post-injection): not different

— patent publication US20110093959A1, “CRYPTOTIS PARVA SCREENING MODEL FOR ANTIEMETIC POTENTIAL” (priority 2008, published 2011)
